In PMC7319089, “Multi-Component Comparative Pharmacokinetics in Rats After Oral Administration of Fructus aurantii Extract, Naringin, Neohesperidin, and Naringin-Neohesperidin” (Frontiers in Pharmacology, 2020):
Where two headings read alike, the source gives them in different places.

How the values were obtained:
[1] = Pharmacokinetics in SD rats after oral administration of FA extract, NA, NHE or NA-NHE (UPLC-MS/MS of plasma, DAS 3.1); type: in vivo, Sprague-Dawley (SD) rats; details: for MRT last: read-out: MRT(0-t); for MRT inf: read-out: MRT(0-∞); for Vd/F: read-out: Vz/F; for Cmax: plasma after β-glucuronidase/sulfatase hydrolysis; for AUC(0-t): read-out: AUC(0-t); for Shape of the plasma concentration-time profile: oral administration, naringin and neohesperidin determined as naringenin and hesperetin
Protocol: The 20 μl of β-glucuronidase and 15 μl of sulfatase were added into 50 μl of plasma sample. After vortexed for 30 s, the mixture was incubated at 37°C for 2 h in a water bath, then placed in ice water for 5 min to terminate the reaction ([Xu et al., 2019]). IS solution (20 µl, 5 μg/ml) and acetonitrile (1.0 ml) were added into the mixture and vortexed for 2 min. […] Rats were randomly divided into the following four groups (6 rats in each group): naringin (NA), neohesperidin (NHE), naringin-neohesperidin (NA-NHE), and FA extract group. The oral administration doses were selected according to the literatures ([Tong et al., 2012]; [Yang et al., 2012]; [Committee of National Pharmacopoeia of RP China, 2015]; [Wang et al., 2018]; [Zhang et al., 2018]; [Chen et al., 2019]), the contents of the five components in FA, and the preliminary experiments. The specific doses were as follows: […] The rats had free access to water during the experiment. The blood samples were then immediately centrifuged at 4,000 rpm for 10 min. The plasma was frozen and stored at −80°C until analysis. The plasma concentration of the studied compounds was determined according to the daily calibration curve.

[2] = Stability of the analytes in rat plasma (QC samples); type: in vitro ADME; details: n = 6; for Long-term Stability RE: -20 °C for one month; for Short-term Stability RE: room temperature 24 h; for Free–thaw Stability RE: three cycles -20 °C/room temperature
Protocol: The QC samples were assayed under several different conditions to evaluate the stability of the compounds in rat plasma. For the short-term stability, fresh plasma samples were kept at room temperature for 24 h before the sample preparation. After keeping the samples at room temperature for 24 h, post-preparation stability was tested. Freeze-thaw cycles (-20 °C/room temperature) stability were […] treated at -20°C for freezing-room temperature melting three times (repeated freezing and thawing three times). In each freeze-thaw cycle, the samples were frozen and stored at -20 °C for 24 h, and subsequently thawed at room. To evaluate the long-term stability of QC plasma samples, following storage at -20 °C for one month. The stability data were acceptable when the bias was within ±15% of the actual value ([Yuan et al., 2017]).

[3] = set-up: method as in Wang et al., 2018; details: after orally administering 30 g/kg FA decoction; ref Wang et al., 2018; cited from earlier work
[4] = Sprague-Dawley, rat, plasma, male SD rats, oral FA extract 10.8 g/kg of the original medicinal material, statistical moment parameters, n = 6
[5] = Sprague-Dawley, rat, male SD rats, oral FA extract 10.8 g/kg of the original medicinal material, statistical moment parameters, n = 6
[6] = male SD rats, oral FA extract 10.8 g/kg of the original medicinal material, two-compartment model parameters, n = 6
[7] = male, Sprague-Dawley, rat, plasma, po, 10.8 g/kg, male SD rats, oral FA extract 10.8 g/kg of the original medicinal material, statistical moment parameters, n = 6
[8] = male, Sprague-Dawley, rat, plasma, po, 10.8 g/kg, male SD rats, oral FA extract 10.8 g/kg of the original medicinal material, statistical moment parameters, n = 6, read-out: CLz/F (converted)
[9] = male, Sprague-Dawley, rat, plasma, po, 10.8 g/kg, male SD rats, oral FA extract 10.8 g/kg of the original medicinal material, statistical moment parameters, n = 6, read-out: Tmax
[10] = male, Sprague-Dawley, rat, plasma, po, 10.8 g/kg, male SD rats, oral FA extract 10.8 g/kg of the original medicinal material, statistical moment parameters, n = 6, read-out: t1/2z (converted)
[11] = male, Sprague-Dawley, rat, plasma, po, 10.8 g/kg, male SD rats, oral FA extract 10.8 g/kg of the original medicinal material, two-compartment model parameters, n = 6
[12] = male, Sprague-Dawley, rat, plasma, po, 10.8 g/kg, male SD rats, oral FA extract 10.8 g/kg of the original medicinal material, two-compartment model parameters, n = 6, read-out: CL/F (converted)
[13] = male, Sprague-Dawley, rat, plasma, po, 10.8 g/kg, male SD rats, oral FA extract 10.8 g/kg of the original medicinal material, two-compartment model parameters, n = 6, read-out: t1/2β (converted)
[14] = high QC concentration (3880 / 2946 / 2470 / 836 / 422.4 ng/mL)
[15] = low QC concentration (3.88 / 2.946 / 2.47 / 0.836 / 0.4224 ng/mL)
[16] = middle QC concentration (77.6 / 58.92 / 49.4 / 16.72 / 8.44 ng/mL)
[17] = male SD rats, oral FA extract 10.8 g/kg of the original medicinal material, statistical moment parameters, n = 6

SMILES | MRT last [1, 4] [h] | MRT inf [1, 4] [h] | Vd/F [1, 4] [L/kg] | Cmax [1, 5] [ng/mL] | Ka [1, 6] [h⁻¹] | V1/F [1, 6] [L/kg] | t1/2α [1, 6] [h] | AUC(0-inf) [1, 7] [ng·h/mL] | AUC(0-t) [1, 7] [ng·h/mL] | CL/F [1, 8] [mL/min/kg] | Tmax [1, 9] [h] | half-life [1, 10] [h] | AUC(0-inf) [1, 11] [ng·h/mL] | AUC(0-t) [1, 11] [ng·h/mL] | CL/F [1, 12] [mL/min/kg] | half-life [1, 13] [h] | Long-term Stability RE [2, 14] [%] | Long-term Stability RE [2, 15] [%] | Long-term Stability RE [2, 16] [%] | Short-term Stability RE [2, 14] [%] | further results
O=C1C[C@@H](c2ccc(O)cc2)Oc2cc(O)cc(O)c21 [Naringenin, naringenin] | 9.71 ± 0.56 | 9.75 ± 0.56 | 2.06 ± 0.29 | 2450 ± 226 | 1.94 ± 0.37 | 0.82 ± 0.06 | 2.63 ± 0.39 | 19700 ± 2630 | 19600 ± 2620 | 9.33 | 9.33 ± 1.03 | 2.56 ± 0.17 | 20900 ± 3010 | 20700 ± 3010 | 13.8 | 2.65 ± 0.18 | -9.76 | -0.84 | 12.09 | -13.49 | Shape of the plasma concentration-time profile ([1]; rats): double peaks; Short-term Stability RE [2, 15]: -3.02%; Short-term Stability RE [2, 16]: 14.81%; Free–thaw Stability RE [2, 14]: -10.94%; Free–thaw Stability RE [2, 15]: -4.36%; Free–thaw Stability RE [2, 16]: 8.14%
C[C@@H]1O[C@@H](O[C@H]2[C@H](Oc3cc(O)c4c(c3)O[C@H](c3ccc(O)cc3)CC4=O)O[C@H](CO)[C@@H](O)[C@@H]2O)[C@H](O)[C@H](O)[C@H]1O [NA, naringin] |  |  |  |  |  | 0.82 ± 0.06 |  |  |  |  |  |  | 20900 ± 3010 | 20700 ± 3010 | 13.8 | 2.65 ± 0.18 |  |  |  |  | Shape of the plasma concentration-time profile ([1]; rats): Double-peak phenomenon; Detection in rat plasma [3]: could not been detected
COc1ccc(-c2cc(=O)c3c(OC)c(OC)c(OC)c(OC)c3o2)cc1OC [Nobiletin, nobiletin] | 4.23 ± 0.5 | 4.8 ± 0.99 | 151 ± 47 | 130 ± 4.78 | 0.69 ± 0.25 | 6.80 ± 1.24 | 4.40 ± 0.34 | 480 ± 117 | 473 ± 119 | 393 | 1.17 ± 0.26 | 2.1 ± 0.37 | 473 ± 63.1 | 472 ± 62.6 | 134 | 4.49 ± 0.57 | -3.36 | 5.83 | 6.71 | 0.80 | AUC(0-t) ([1]; Sprague-Dawley, rat, plasma, po, 10.8 g/kg, rats, oral FA extract, unit inferred): 473 ± 119 ng·h/mL; Short-term Stability RE [2, 15]: 7.01%; Short-term Stability RE [2, 16]: 7.89%; Free–thaw Stability RE [2, 14]: -1.72%; Free–thaw Stability RE [2, 15]: 2.21%; Free–thaw Stability RE [2, 16]: 10.46%
COc1ccc([C@@H]2CC(=O)c3c(O)cc(O)cc3O2)cc1O [Hesperetin, hesperetin] | 11.4 ± 0.37 | 11.7 ± 0.42 | 12.2 ± 1.67 | 425 ± 11.1 | 3.17 ± 0.93 | 7.17 ± 1.40 | 3.47 ± 0.51 | 4340 ± 326 | 4300 ± 315 | 41.7 | 9.67 ± 0.82 | 3.4 ± 0.46 | 4420 ± 724 | 4350 ± 705 | 68.2 | 3.86 ± 0.32 | -7.81 | 5.03 | -8.58 | -13.50 | Shape of the plasma concentration-time profile ([1]; rats): double peaks; Short-term Stability RE [2, 15]: 4.10%; Short-term Stability RE [2, 16]: -9.20%; Free–thaw Stability RE [2, 14]: -12.68%; Free–thaw Stability RE [2, 15]: 7.78%; Free–thaw Stability RE [2, 16]: -10.70%
COc1ccc2ccc(=O)oc2c1CC1OC1(C)C (centres unmarked) [Meranzin, meranzin] | 4.82 ± 0.76 | 6.39 ± 2.22 | 477 ± 70.2 | 27.7 ± 2.85 | 2.18 ± 0.97 | 5.91 ± 1.12 | 6.39 ± 0.11 | 80.4 ± 15.5 | 76.9 ± 14.7 | 2310 | ~1 | > 6.5 | 87.8 ± 22.9 | 84.4 ± 22.5 | 1200 | 6.48 ± 0.38 | -7.37 | -10.98 | -13.52 | -2.81 | Tmax [1, 17]: 0.92 ± 0.13 h; t1/2z [1, 17]: 6.52 ± 0.63 h; Short-term Stability RE [2, 15]: -6.25%; Short-term Stability RE [2, 16]: -8.40%; Free–thaw Stability RE [2, 14]: -6.01%; Free–thaw Stability RE [2, 15]: -9.71%; Free–thaw Stability RE [2, 16]: 11.07%
COc1ccc2ccc(=O)oc2c1CC(O)C(C)(C)O (centres unmarked) [Meranzin hydrate, meranzin hydrate] | 5.17 ± 0.34 | 6.57 ± 0.95 | 9.36 ± 3.56 | 3360 ± 91 | 2.05 ± 0.46 | 4.30 ± 1.14 | 6.61 ± 0.86 | 11600 ± 2760 | 11100 ± 2820 | 16.2 | ~1 | > 6.5 | 12300 ± 2590 | 12100 ± 2760 | 7.5 | 6.91 ± 1.05 | 6.85 | 7.62 | 3.19 | 7.43 | Short-term Stability RE [2, 15]: 4.71%; Short-term Stability RE [2, 16]: 1.55%; Free–thaw Stability RE [2, 14]: 7.63%; Free–thaw Stability RE [2, 15]: 5.77%; Free–thaw Stability RE [2, 16]: 0.71%
